Measurements from ChEMBL document CHEMBL6121006, “Marine natural product-inspired discovery of novel BRD4 inhibitors with anti-inflammatory activity” (Eur J Med Chem, 2025).
Activity calls are given as the source filed them. The calls are words filed in the database; no cut-off is given here.

Tests used:
[1] = biological target: T1, Bromodomain-containing protein 4 (Homo sapiens, UniProt O60885); assay: Inhibition of human recombinant BRD4 BD1 (42 to 167 residues) extracted from Escherichia coli BL21 (DE3) at 10 uM incubated for 2 hrs by TR-FRET assay relative to control
[2] = biological target: T1, Bromodomain-containing protein 4; assay: Inhibition of human recombinant BRD4 BD2 (349 to 460 residues) extracted from Escherichia coli BL21 (DE3) at 10 uM incubated for 2 hrs by TR-FRET assay relative to control
RAW264.7 [3] = assay: Anti-inflammatory activity in mouse RAW264.7 cells assessed as inhibition of LPS-induced NO production at 10 uM preincubated with compound for 24 hrs followed by LPS stimulation by Griess reagent based analysis relative to control; format: functional; parameters: scale not given: the % may be the effect or the level left
[4] = biological target: T1, Bromodomain-containing protein 4; assay: Inhibition of human recombinant BRD4 BD2 (349 to 460 residues) extracted from Escherichia coli BL21 (DE3) incubated for 2 hrs by TR-FRET assay
[5] = biological target: T1, Bromodomain-containing protein 4; assay: Selectivity index, ratio of IC50 for human recombinant BRD4 BD1 (42 to 167 residues) extracted from Escherichia coli BL21 (DE3) to IC50 for human recombinant BRD4 BD2 (349 to 460 residues) extracted from Escherichia coli BL21 (DE3)
[6] = biological target: T1, Bromodomain-containing protein 4; assay: Inhibition of human recombinant BRD4 BD1 (42 to 167 residues) extracted from Escherichia coli BL21 (DE3) incubated for 2 hrs by TR-FRET assay
[7] = biological target: T1, Bromodomain-containing protein 4; assay: Inhibition of BRD4 (unknown origin)
RAW264.7 [8] = assay: Anti-inflammatory activity in mouse RAW264.7 cells assessed as inhibition of LPS-induced NO production preincubated with compound for 24 hrs followed by LPS stimulation by Griess reagent based analysis; format: functional, cell-based
THP-1 [9] = assay: Anti-inflammatory activity in human THP-1 cells assessed as inhibition of LPS-induced TNF-alpha expression preincubated with compound for 2 hrs followed by LPS stimulation and measured after 6 hrs by RT-qPCR analysis; format: functional, cell-based; conditions: dose 2.5-20 µM, time 8.0 hrs
THP-1 [10] = assay: Anti-inflammatory activity in human THP-1 cells assessed as inhibition of LPS-induced IL-6 expression preincubated with compound for 2 hrs followed by LPS stimulation and measured after 6 hrs by RT-qPCR analysis; format: functional, cell-based; conditions: dose 2.5-20 µM, time 8.0 hrs
RAW264.7 [11] = assay: Anti-inflammatory activity in mouse RAW264.7 cells assessed as inhibition of LPS-induced IL-6 expression preincubated with compound for 2 hrs followed by LPS stimulation and measured after 6 hrs by RT-qPCR analysis; format: functional, cell-based; conditions: dose 2.5-20 µM, time 8.0 hrs
RAW264.7 [12] = assay: Anti-inflammatory activity in mouse RAW264.7 cells assessed as inhibition of LPS-induced TNF-alpha expression preincubated with compound for 2 hrs followed by LPS stimulation and measured after 6 hrs by RT-qPCR analysis; format: functional, cell-based; conditions: dose 2.5-20 µM, time 8.0 hrs

| Compound | inhibition [1] | inhibition [2] | IC50 [4] | Ratio IC50 [5] | IC50 [6] | Activity (RAW264.7 [3]) | other results |
| --- | --- | --- | --- | --- | --- | --- | --- |
| COc1cc(OC)c2c(=O)[nH]c(C=C(c3ccccc3)c3ccccc3)nc2c1 | 3.1% | 66% | 7.06 µM | > 1 | > 10 µM | 21% | – |
| COc1cc(OC)c2c(=O)[nH]c(/C=C/c3cc(OC)c(O)c(OC)c3)nc2c1 | 13% | 98% | 0.39 µM | > 26 | > 10 µM | 18% | – |
| C[C@@H]1C[C@H]2[C@@H]3CCC4=CC(=O)C=C[C@]4(C)[C@@]3(F)[C@@H](O)C[C@]2(C)[C@@]1(O)C(=O)CO [DEXAMETHASONE] | – | – | – | – | – | 29% | – |
| COc1cc(OC)c2c(=O)[nH]c(/C(C)=C/c3ccccc3)nc2c1 | 20% | 59% | 1.33 µM | > 7 | > 10 µM | 6.8% | – |
| Cc1nnn(C)c1-c1cnc2c3cc4cnn(C)c4cc3n([C@H](c3ccccc3)C3CCOCC3)c2c1 | – | – | – | – | – | – | IC50 [7]: 0.00245 µM |
| COc1cc(OC)c2c(=O)[nH]c(C3CCN(Cc4ccccc4)CC3)nc2c1 | 51% | 46% | > 10 µM | – | 7.87 µM | 89% | IC50 (RAW264.7 [8]): 6.78 µM |
| COc1cc(OC)c2c(=O)[nH]c(C(=O)c3cccc(C(F)(F)F)c3)nc2c1 | 13% | 53% | > 10 µM | – | > 10 µM | 12% | – |
| COc1cc(OC)c2c(=O)[nH]c(-c3cc(C)c(OCCO)c(C)c3)nc2c1 [APABETALONE] | – | 99% | – | – | – | 74% | Activity (THP-1 [9]): Dose-dependent-effect; IC50 (RAW264.7 [8]): 8.76 µM; Activity (THP-1 [10]): Dose-dependent-effect; Activity (RAW264.7 [11]): Dose-dependent-effect; Activity (RAW264.7 [12]): Dose-dependent-effect |
| COc1cc(OC)c2c(=O)[nH]c(/C=C/c3ccc(N(C)C)cc3)nc2c1 | 24% | 74% | 0.47 µM | > 21 | > 10 µM | 24% | – |
| COc1cc(OC)c2c(=O)[nH]c(CC(C)c3ccc(C(C)(C)C)cc3)nc2c1 (stereo not given) | 54% | 97% | 0.74 µM | > 13 | > 10 µM | 3.4% | – |
| O=C(c1ccc2ccccc2c1)c1nc2ccccc2c(=O)[nH]1 | 16% | 17% | – | – | – | – | – |
| COc1cc(OC)c2c(=O)[nH]c(/C=C/c3ccc(Cl)cc3)nc2c1 | 23% | 54% | > 10 µM | – | > 10 µM | 11% | – |
| COc1cccc(/C=C/c2nc3cc(OC)cc(OC)c3c(=O)[nH]2)c1 | inactive | 67% | > 10 µM | – | – | 78% | IC50 (RAW264.7 [8]): 5.22 µM; inhibition [6]: inactive |
| O=C(c1ccc(O)cc1)c1nc2ccccc2c(=O)[nH]1 | 17% | 11% | – | – | – | – | – |

Now from value to molecule, other results behind:

| inhibition [1] | inhibition [2] | IC50 [4] | Ratio IC50 [5] | IC50 [6] | Compound | Activity (RAW264.7 [3]) | other results |
| --- | --- | --- | --- | --- | --- | --- | --- |
| 11% | 17% | – | – | – | COc1cc(OC)c2c(=O)[nH]c(C(=O)c3cc(OC)c(OC)c(OC)c3)nc2c1 | – | – |
| 56% | 75% | 1.52 µM | 3 | 4.59 µM | COc1ccc(Cc2nc3cc(OC)cc(OC)c3c(=O)[nH]2)cc1 | 15% | – |
| 22% | 15% | – | – | – | COc1cc(C(=O)c2nc3ccccc3c(=O)[nH]2)cc(OC)c1OC | – | – |
| inactive | 52% | 1.84 µM | > 10 | – | COc1cc(OC)c2c(=O)[nH]c(C(=O)c3ccc(F)cc3)nc2c1 | 18% | inhibition [6]: inactive |
| 13% | 47% | – | – | – | COc1cc(OC)c2c(=O)[nH]c(C(=O)c3ccc(OC)c(OC)c3)nc2c1 | – | – |
| 10% | 46% | – | – | – | COc1cc(OC)c2c(=O)[nH]c(C(=O)c3cc(F)ccc3F)nc2c1 | – | – |
| inactive | 51% | 3.93 µM | > 10 | – | COc1ccc(C(=O)c2nc3cc(OC)cc(OC)c3c(=O)[nH]2)cc1 | 6.4% | inhibition [6]: inactive |
| 12% | 86% | 0.74 µM | > 13 | > 10 µM | COc1ccc(CCc2nc3cc(OC)cc(OC)c3c(=O)[nH]2)cc1 | 17% | – |
| 1.3% | 48% | – | – | – | COc1cc(OC)c2c(=O)[nH]c(C(=O)c3ccc(OCCO)cc3)nc2c1 | – | – |
| 10% | 53% | > 10 µM | – | > 10 µM | COc1ccc(C(=O)c2nc3cc(OC)c(I)c(OC)c3c(=O)[nH]2)cc1 | 14% | – |
| 12% | 48% | – | – | – | COc1cc(OC)c2c(=O)[nH]c(C(=O)c3cccc(C#N)c3)nc2c1 | – | – |
| 54% | 42% | – | – | 2.16 µM | COc1ccc(C(=O)c2nc3ccccc3c(=O)[nH]2)cc1 | 5.4% | – |
